Experimental data from paper PMC8589421, “Impact of Type II LRRK2 inhibitors on signaling and mitophagy” (Biochemical Journal, 2021).
Read-outs that look alike come from different tables or passages of the source.

Experiments:
[1] = tested on: Rab10 pThr73, LRRK2 [R1441C]; test: Rab10 Thr73 phospho-immunoblot in LRRK2[R1441C] knock-in MEFs; type: cell-based, mouse; conditions: LRRK2[R1441C] knock-in MEFs, 2 h, read-out: LRRK2 [R1441C] Rab10 pThr73 IC50
Procedure: (§1) Wild-type and homozygous LRRK2 [R1441C] (Jax, stock number: 009346), LRRK2[G2019S] Taconic, (model 13940) and LRRK2 [A2016T] (Jax, stock number: 021828)[7] knock-in MEF cells were isolated from littermate-matched mouse embryos on a C57BL/6J background at day E12.5 as described previously. MEFs were grown in Dulbecco's modified Eagle medium (DMEM GIBCO, #11960-085) containing 10% (by vol) fetal bovine serum (FBS), 2 mM L-glutamine, 100 U/ml penicillin, and […] streptomycin supplemented with non-essential amino acids and 1 mM sodium pyruvate. Human embryonic kidney 293 (HEK293) (#ATCC CRL-1573) and HeLa (#ATCC CCL-2) cells were purchased from American Tissue Culture Collection (ATCC) and cultured in DMEM containing 10% (by vol) FBS, 2 mM L-glutamine, 100 U/ml penicillin, and […] streptomycin. All cells were grown at 37°C, 5% (by vol) CO2 in a humidified atmosphere and regularly tested for mycoplasma contamination.
(§2) Inhibitors were dissolved in dimethyl sulfoxide (DMSO) (Sigma, #D2650). The inhibitors were diluted 1000× into cell medium. The equivalent volume of DMSO was added to the minus inhibitor controls. Experiments were performed in six-well plates, 10 cm dishes or 15 cm dishes depending on the amount of cell extract required.
(§3) Cells were lysed in an ice-cold lysis buffer containing 50 mM Tris–HCl, pH 7.4, 1% (by vol) Triton X-100, 10% (by vol) glycerol, 150 mM NaCl, 1 mM sodium orthovanadate, 50 mM NaF, 10 mM 2-glycerophosphate, 5 mM sodium pyrophosphate, 1 µg/ml microcystin-LR, and cOmplete EDTA-free protease inhibitor cocktail (Roche, #11836170001). Lysates were incubated on ice for 30 min and clarified by centrifugation at 20 800×g at 4°C for 20 min. Supernatants were quantified by Bradford assay (Bio-Rad Protein Assay Dye Reagent Concentrate #5000006) and samples prepared in 1× lithium dodecyl sulfate sample buffer final concentration (NuPage LDS Sample buffer 4× Invitrogen, #NP0008). When not deployed immediately, lysates were snap-frozen in liquid nitrogen and stored at −80°C until use. […]

[2] = tested on: Rab10 phosphorylation, LRRK2[A2016T]; test: Rab10 Thr73 phospho-immunoblot in inhibitor resistant LRRK2[A2016T] knock-in MEFs; type: cell-based, mouse; conditions: 2 h, up to 3 µM
Procedure: as §1, §2, §3

For Cc1ccc(C(=O)Nc2ccc(CN3CCN(C)CC3)c(C(F)(F)F)c2)cc1C#Cc1cnc2[nH]ncc2c1 [GZD-824], the IC50 [1] was 262 nM, the IC50 ([1]; Mus musculus) was 262 nM and the “effect of A2016T mutation on inhibition of Rab10 phosphorylation” value [2] was “markedly blocked”.
